Reference: article PMC9374667 (Communications Biology, 2022)
Several values for one entry are separate records, joined by “and”; a condition that tells them apart may be missing. Identical values can stand only once.

Tests used:
[1] = Berberine content in adipose tissue of db/db mice (HPLC); conditions: BJ 75 and 150 mg/kg, BBR 150 mg/kg, crushing, extracting
From the text: Response: We thank the Reviewer for this comment. In line with the Reviewer ’s
each group by crushing, extracting, and HPLC analysis.
based on the improved bioavailability.
Figure 1. (a) The positions of the peaks of berberine standards in the HPLC assay.

TBK1 [2] = target: T1, TBK1 (Mus musculus, UniProt Q9WUN2); experiment: 3T3-L1 adipocytes transfected with TBK1 plasmid (western blotting, immunofluorescence); format: cell-based, Murine; parameters: host or cells: differentiated 3T3-L1 adipocytes (Lipofectamine 2000); TBK1 (western blotting, Figure 8a) / p-TBK1 (western blotting, Figure 8b) / p-AMPKα (western blotting, Figure 8c) / UCP1 (western blotting, Figure 8d): scale not given here; conditions: for Mean Intensity: 2μg TBK1 + 10μM BJ, individual replicates
T1 sequence (Q9WUN2 1-729): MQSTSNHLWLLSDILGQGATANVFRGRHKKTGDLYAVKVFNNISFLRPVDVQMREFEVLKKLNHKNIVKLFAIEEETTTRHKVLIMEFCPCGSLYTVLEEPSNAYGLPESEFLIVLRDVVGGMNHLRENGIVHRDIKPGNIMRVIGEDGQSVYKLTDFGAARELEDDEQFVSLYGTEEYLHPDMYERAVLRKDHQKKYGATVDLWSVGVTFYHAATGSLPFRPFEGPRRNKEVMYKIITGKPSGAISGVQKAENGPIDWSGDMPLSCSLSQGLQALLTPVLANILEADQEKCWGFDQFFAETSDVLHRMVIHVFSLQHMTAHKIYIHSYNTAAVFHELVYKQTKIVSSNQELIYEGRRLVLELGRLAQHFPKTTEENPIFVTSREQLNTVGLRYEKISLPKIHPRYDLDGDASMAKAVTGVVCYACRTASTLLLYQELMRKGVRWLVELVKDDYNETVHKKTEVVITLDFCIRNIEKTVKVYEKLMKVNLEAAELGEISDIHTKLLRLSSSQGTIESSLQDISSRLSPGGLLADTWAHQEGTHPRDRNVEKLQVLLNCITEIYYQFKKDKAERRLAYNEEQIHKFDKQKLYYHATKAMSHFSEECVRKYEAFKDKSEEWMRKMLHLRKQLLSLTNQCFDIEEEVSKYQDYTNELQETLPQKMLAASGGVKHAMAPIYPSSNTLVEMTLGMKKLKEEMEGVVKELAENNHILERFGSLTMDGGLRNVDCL
Experimental: […] The 3T3-L1 adipocytes were washed with PBS for 3 times, fixed with 4% paraformaldehyde solution for 30 min, and then washed again for 3 times. […] The cells were then incubated overnight at 4 °C with the appropriate primary antibodies (1:100 dilution). The next day, the 3T3-L1 adipocytes were washed and incubated at room temperature with goat anti-rabbit secondary antibody or goat anti-mouse secondary antibody (1:1000 dilution) for 2 h and washed with PBS for 3 times. The nuclei were stained with DAPI. […] Fluorescence images were taken using a laser confocal microscope (SP8, Leica, Germany). At least four images per section were acquired for quantification, and the mean intensity were evaluated using ImageJ. The adipose tissue or 3T3-L1 adipocytes were homogenized by ultrasound in an ice-cold RIPA lysis buffer containing 1% PMSF and centrifuged at 12,000 × g at 4°C for 15 min to collect the supernatant. The BCA protein assay kit (Beyotime, Shanghai, China) was used to detect the total protein concentration. Proteins (20-30 μg) of the sample were separated by 10% SDS-PAGE gel and transferred onto polyvinylidene difluoride (PVDF) membranes. Then the PVDF membranes were blocked in 5% skim milk powder in TBS containing 1% Tween-20 (TBST) for 2 h at room temperature and washed with TBST for 3 times. […] After washing, the membranes were incubated with horseradish peroxidase-conjugated secondary antibodies (in 5% skim milk powder) for 1 h at room temperature. Finally, the membranes were treated with enhanced chemiluminescence agents (Tanon, Shanghai, China) and the signals were monitored using the Tanon 5200 multi chemiluminescent imaging system (Tanon, Shanghai, China).

TBK1 [3] = target: T1, TBK1; experiment: TBK1 activity assay in BAT; format: in vivo, mice; parameters: The adipose tissue was ultrasound-crushed in PBS buffer solution (1:9 w/v) to prepare the tissue homogenate; from tissue; host or cells: epididymal white adipose tissue (eWAT) and brown adipose tissue (BAT) of C57BLKS WT and db/db mice; conditions: for the expression of TBK1 in BAT of db/db mice: Figure 6m, individual values
Experimental: The adipose tissue was ultrasound-crushed in PBS buffer solution (1:9 w/v) to prepare the tissue homogenate. The tissue homogenate was centrifuged at 5000 × g for 10 min, and the supernatant was taken for detection. Briefly, samples or standards were added to the microplates pre-coated with IKKε antibody or TBK1 antibody. Then horseradish peroxidase (HRP) labeled antibody was added and incubated at 37 °C for 60 min. After thorough washing, the 3,3′,5,5′-tetramethylbenzidine (TMB) substrate was used for color development, and the absorbance (OD value) was determined at 450 nm.

[4] = 3T3-L1 adipocytes transfected with TBK1 plasmid, 10 μM BJ, vs TBK1 transfection

Row | Structure (SMILES) | BBR in adipose tissue (accumulation) [1] | TBK1 (western blotting, Figure 8a) (TBK1 [2]; 2μg TBK1+10μM BJ) | UCP1 (western blotting, Figure 8d) (TBK1 [2]; 2μg TBK1+10μM BJ) | p-AMPKα (western blotting, Figure 8c) (TBK1 [2]; 2μg TBK1+10μM BJ) | p-TBK1 (western blotting, Figure 8b) (TBK1 [2]; 2μg TBK1+10μM BJ) | TBK1 (western blotting, Figure 8a) (TBK1 [2]; 10μM BJ) | UCP1 (western blotting, Figure 8d) (TBK1 [2]; 10μM BJ) | p-AMPKα (western blotting, Figure 8c) (TBK1 [2]; 10μM BJ) | p-TBK1 (western blotting, Figure 8b) (TBK1 [2]; 10μM BJ) | Phosphorylation of TBK1 at Ser172 (TBK1 [2]; 3T3-L1 adipocytes transfected with TBK1 plasmid, 10 μM BJ) | Phosphorylation of AMPKα Thr172 and UCP1 protein levels (TBK1 [2]; [4]) | TBK1 protein levels (TBK1 [2]; [4]) | Mean Intensity (TBK1 [2]; Figure S11c) | Mean Intensity (TBK1 [2]; Figure S11g) | Mean Intensity (TBK1 [2]; Figure S11d) | Mean Intensity (TBK1 [2]; sheet Figure S11h) | the expression of TBK1 in BAT of db/db mice (TBK1 [3]; db/db+BJ 75mg/kg) | the expression of TBK1 in BAT of db/db mice (TBK1 [3]; db/db+BJ 150mg/kg) | TBK1 activity and expression levels in BAT (TBK1 [3]; db/db mice, both doses of BJ)
1 | COc1ccc2cc3[n+](cc2c1OC)CCc1cc2c(cc1-3)OCO2 [BBR, Berberine chloride dihydrate] | not detected | – | – | – | – | – | – | – | – | – | – | – | – | – | – | – | – | – | –
2 | CC(C)Cc1ccc(C(C)C(=O)[O-])cc1.COc1ccc2cc3[n+](cc2c1OC)CCc1cc2c(cc1-3)OCO2.O.O.O.O [BJ, berberine-ibuprofen] | – | 0.5408 and 0.448 and 0.5761 | 0.7389 and 0.5561 and 0.5877 | 0.3928 and 0.3723 and 0.348 | 0.5922 and 0.4 and 0.4766 | 0.38 and 0.387 and 0.3646 | 0.5655 and 0.6018 and 0.6331 | 0.4524 and 0.4108 and 0.3523 | 0.5028 and 0.4045 and 0.6995 | increased the phosphorylation of TBK1 at Ser172 | increased the phosphorylation of AMPKα Thr172 and increased the UCP1 protein levels | markedly reduced the TBK1 protein levels | 20.873 A.U. and 18.04 A.U. and 17.203 A.U. and 19.263 A.U. and 18.463 A.U. and 18.776 A.U. and 23.056 A.U. and 11.015 A.U. and 23.907 A.U. and 21.41 A.U. and 21.836 A.U. and 20.009 A.U. | 11.659 A.U. and 7.08 A.U. and 13.692 A.U. and 12.377 A.U. and 10.165 A.U. and 17.942 A.U. and 13.51 A.U. and 14.616 A.U. and 14.87 A.U. and 10.529 A.U. and 9.155 A.U. and 10.462 A.U. | 20.305 A.U. and 17.417 A.U. and 18.699 A.U. and 21.221 A.U. and 16.857 A.U. and 15.382 A.U. and 18.398 A.U. and 14.495 A.U. and 16.691 A.U. and 21.635 A.U. and 11.895 A.U. and 12.802 A.U. | 18.036 A.U. and 17.064 A.U. and 12.941 A.U. and 17.572 A.U. and 15.135 A.U. and 12.981 A.U. and 16.45 A.U. and 12.776 A.U. and 13.679 A.U. and 13.503 A.U. and 12.749 A.U. and 17.882 A.U. | 0.366 U/g and 0.397 U/g and 0.402 U/g and 0.336 U/g and 0.384 U/g and 0.344 U/g | 0.338 U/g and 0.377 U/g and 0.358 U/g and 0.428 U/g and 0.335 U/g and 0.369 U/g | had no effect
